Data taken from the supplement of paper PMC11451515.

Tested on: SEM cells
Assay: cell viability relative to DMSO control; higher = less cytotoxic
Conditions: 48 h
Procedure, shortened: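 In 1536-well plates, 5 μl of leukemia cells were seeded per well: 500 cells/well for NOMO1 or SEM and 1000 cells/well for P12-Ichikawa. Each line had first been adapted for at least four passages in each medium. Library compounds in DMSO were pin-dosed at 11 threefold concentrations between 47 μM and 0.79 nM, and CellTiter-Glo One luminescence was read after 48 h at 37°C. Viability is a per-plate percentage relative to DMSO wells, with cell-free wells as background.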

[1] = HPLM + 10% dialyzed FBS, 0.000781 µM
[2] = HPLM + 10% dialyzed FBS, 0.00234 µM
[3] = HPLM + 10% dialyzed FBS, 0.00702 µM
[4] = HPLM + 10% dialyzed FBS, 0.0211 µM
[5] = HPLM + 10% dialyzed FBS, 0.0632 µM
[6] = HPLM + 10% dialyzed FBS, 0.19 µM
[7] = HPLM + 10% dialyzed FBS, 0.569 µM
[8] = HPLM + 10% dialyzed FBS, 1.71 µM
[9] = HPLM + 10% dialyzed FBS, 5.12 µM
[10] = HPLM + 10% dialyzed FBS, 15.4 µM
[11] = HPLM + 10% dialyzed FBS, 46.1 µM
[12] = RPMI 5 mM glucose + 10% FBS, 0.000781 µM
[13] = RPMI 5 mM glucose + 10% FBS, 0.00234 µM
[14] = RPMI 5 mM glucose + 10% FBS, 0.00702 µM
[15] = RPMI 5 mM glucose + 10% FBS, 0.0211 µM
[16] = RPMI 5 mM glucose + 10% FBS, 0.0632 µM
[17] = RPMI 5 mM glucose + 10% FBS, 0.19 µM
[18] = RPMI 5 mM glucose + 10% FBS, 0.569 µM
[19] = RPMI 5 mM glucose + 10% FBS, 1.71 µM
[20] = RPMI 5 mM glucose + 10% FBS, 5.12 µM
[21] = RPMI 5 mM glucose + 10% FBS, 15.4 µM
[22] = RPMI 5 mM glucose + 10% FBS, 46.1 µM
[23] = RPMI 5 mM glucose + 10% dialyzed FBS, 0.000781 µM
[24] = RPMI 5 mM glucose + 10% dialyzed FBS, 0.00234 µM
[25] = RPMI 5 mM glucose + 10% dialyzed FBS, 0.00702 µM
[26] = RPMI 5 mM glucose + 10% dialyzed FBS, 0.0211 µM
[27] = RPMI 5 mM glucose + 10% dialyzed FBS, 0.0632 µM
[28] = RPMI 5 mM glucose + 10% dialyzed FBS, 0.19 µM
[29] = RPMI 5 mM glucose + 10% dialyzed FBS, 0.569 µM
[30] = RPMI 5 mM glucose + 10% dialyzed FBS, 1.71 µM
[31] = RPMI 5 mM glucose + 10% dialyzed FBS, 5.12 µM
[32] = RPMI 5 mM glucose + 10% dialyzed FBS, 15.4 µM
[33] = RPMI 5 mM glucose + 10% dialyzed FBS, 46.1 µM

Row | SMILES | cell viability [1] | cell viability [2] | cell viability [3] | cell viability [4] | cell viability [5] | cell viability [6] | cell viability [7] | cell viability [8] | cell viability [9] | cell viability [10] | cell viability [11] | cell viability [12] | cell viability [13] | cell viability [14] | cell viability [15] | cell viability [16] | cell viability [17] | cell viability [18] | cell viability [19] | cell viability [20] | cell viability [21] | cell viability [22] | cell viability [23] | cell viability [24] | cell viability [25] | cell viability [26] | cell viability [27] | cell viability [28] | cell viability [29] | cell viability [30] | cell viability [31] | cell viability [32] | cell viability [33]
1 | OC1=C(O)C2=C(\C=C/C(=O)O2)C=C1 | 82.7% | 94.1% | 90.2% | 101% | 65.4% | 102% | 98.4% | 103% | 99.1% | 93.9% | 9.29% | 91.8% | 106% | 98.1% | 91.6% | 70% | 91.8% | 98.3% | 102% | 102% | 93.5% | 7.55% | 83.2% | 101% | 98.9% | 102% | 78.8% | 101% | 112% | 101% | 90.4% | 90.3% | 9.04%
2 | CC(=O)Nc1ccc(OC[C@](C)(O)C(=O)Nc2ccc([N+](=O)[O-])c(C(F)(F)F)c2)cc1 | 67.5% | 59.4% | 69% | 75.9% | 68.9% | 72.8% | 77.1% | 84% | 83.4% | 82.3% | 54.8% | 81.6% | 78.3% | 77.8% | 103% | 80.8% | 80.2% | 88.8% | 90.4% | 81.8% | 93.7% | 44.7% | 79.9% | 79% | 84.8% | 108% | 86.7% | 97.5% | 88.7% | 93.8% | 71% | 91.7% | 48%
3 | CCCCCCCCCCCCCCCCCCCCCCO | 104% | 95% | 119% | 116% | 110% | 110% | 111% | 127% | 87.8% | 123% | 132% | 122% | 113% | 135% | 133% | 129% | 146% | 153% | 156% | 98.4% | 138% | 155% | 102% | 98.1% | 120% | 123% | 118% | 115% | 118% | 132% | 87% | 116% | 138%
4 | Oc1ccc2c3c1O[C@H]1c4[nH]c5c(c4C[C@@]4(O)[C@@H](C2)N(CC2CC2)CC[C@]314)C[C@@]1(O)[C@H]2Cc3ccc(O)c4c3[C@@]1(CCN2CC1CC1)[C@H]5O4 | 70.3% | 88.3% | 101% | 92.6% | 108% | 99.4% | 98.4% | 107% | 113% | 113% | 119% | 86.9% | 80.2% | 102% | 85.7% | 123% | 119% | 123% | 128% | 131% | 119% | 123% | 89.5% | 92.6% | 104% | 80.3% | 107% | 106% | 111% | 107% | 98.4% | 99.6% | 113%
5 | ClC1=C(N\C2=N\CCN2)C3=NSN=C3C=C1 | 77.6% | 91.6% | 107% | 69.7% | 97.8% | 105% | 102% | 111% | 115% | 116% | 113% | 93.7% | 111% | 115% | 74.6% | 121% | 114% | 114% | 109% | 117% | 126% | 126% | 94.2% | 105% | 110% | 69.1% | 120% | 122% | 129% | 121% | 118% | 137% | 137%
6 | Nc1ccccc1NC(=O)c1ccc(CNC(=O)OCc2cccnc2)cc1 | 109% | 120% | 120% | 111% | 118% | 119% | 87.2% | 21.2% | 8.14% | 7.22% | 5.16% | 109% | 117% | 136% | 125% | 132% | 120% | 89.3% | 12.2% | 7.97% | 6.97% | 4.6% | 94.3% | 105% | 99.8% | 114% | 124% | 104% | 76.3% | 13% | 8.44% | 7.8% | 5.76%
7 | [NH2][Pt]1([NH2])[O]CC(=O)[O]1 | 78.3% | 95.6% | 96.2% | 92.2% | 91.2% | 102% | 94.4% | 97% | 108% | 96.7% | 89.7% | 104% | 100% | 110% | 96.4% | 108% | 109% | 95.5% | 101% | 103% | 88.3% | 96.3% | 75.6% | 84.2% | 85.7% | 83.6% | 88.1% | 87.7% | 76.9% | 94.9% | 79% | 91.5% | 92.3%
8 | NC1(Cc2ccc(Cl)cc2)CCN(c2ncnc3[nH]ccc23)CC1 | 103% | 106% | 96% | 100% | 92.8% | 91.6% | 95.7% | 75.7% | 66.9% | 6.62% | 2.55% | 107% | 117% | 118% | 116% | 112% | 106% | 86.1% | 79.6% | 59.8% | 4.37% | 2.8% | 106% | 98.6% | 99.7% | 92.7% | 81.8% | 83.7% | 82.9% | 74.5% | 54.7% | 6.24% | 2.65%
9 | CCc1cc(Nc2nccc(-c3c(-c4ccc(OC)c(C(=O)Nc5c(F)cccc5F)c4)nc4ccccn34)n2)c(OC)cc1N1CCC(N2CCN([S+](C)(=O)[O-])CC2)CC1 | 88.9% | 84.9% | 102% | 93.2% | 87.7% | 84.8% | 95.3% | 89.1% | 96.2% | 82.6% | 52.4% | 88.4% | 94.6% | 102% | 100% | 107% | 121% | 105% | 91.6% | 91.9% | 66.6% | 23.5% | 83.1% | 78% | 80.7% | 101% | 87.8% | 79.9% | 86% | 80.6% | 89.1% | 65.9% | 38.7%
10 | CC/1=C/C(=O)N(O)/C(=C1)C2CCCCC2 | 82.9% | 89.7% | 119% | 111% | 116% | 106% | 126% | 126% | 117% | 50.8% | 12.6% | 113% | 111% | 135% | 124% | 129% | 143% | 140% | 147% | 101% | 55.3% | 14.2% | 92.9% | 94.4% | 126% | 117% | 122% | 147% | 140% | 144% | 113% | 56.4% | 14.4%
11 | CC(NC1=CC=CC=C1)C\2=C\C(=C/N3C(=O)\C=C(/N=C23)N4CCOCC4)C (configuration not stated) | 96.9% | 86.4% | 108% | 99.1% | 101% | 108% | 107% | 108% | 103% | 97.3% | 86.5% | 99.1% | 101% | 117% | 126% | 103% | 101% | 128% | 119% | 117% | 101% | 12.2% | 95.3% | 79.7% | 113% | 106% | 94.3% | 73.8% | 101% | 110% | 98.3% | 87.3% | 53.8%
12 | CCC(C)SSc1ncc[nH]1 (configuration not stated) | 87.4% | 90.2% | 107% | 101% | 91% | 97.5% | 89% | 36.2% | 81.9% | 57.8% | 7.14% | 93.9% | 91.5% | 88.7% | 102% | 92.7% | 109% | 93.8% | 17.7% | 82.9% | 29.9% | 6.98% | 85.7% | 75.8% | 83.2% | 83.9% | 89.8% | 108% | 78.8% | 27.2% | 73.6% | 10.3% | 6.57%
13 | C\C1=C\C(=O)OC2=C1C=CC(=C2)O | 120% | 114% | 126% | 119% | 118% | 119% | 128% | 77.1% | 122% | 111% | 109% | 98.1% | 118% | 108% | 104% | 118% | 110% | 118% | 87.3% | 108% | 97.1% | 92.1% | 120% | 119% | 146% | 136% | 135% | 117% | 114% | 75.2% | 117% | 117% | 115%
14 | Cc1c(CN2CCN(C(=O)[C@H](C)O)CC2)sc2c(N3CCOCC3)nc(-c3cnc(N)nc3)nc12 | 98% | 63.4% | 78.2% | 79% | 70.5% | 67.7% | 55.4% | 38.5% | 35.8% | 36.1% | 31.3% | 96.8% | 70% | 95.4% | 80.9% | 84.6% | 80.1% | 56.3% | 34.3% | 34.3% | 36.8% | 27.3% | 90.4% | 54.8% | 87.4% | 82.4% | 67% | 78.6% | 48.2% | 41.3% | 36.6% | 34.6% | 30.5%
